Drawing on PMC6380468, “Investigations on small molecule inhibitors targeting the histone H3K4 tri-methyllysine binding PHD-finger of JmjC histone demethylases” (Bioorganic & Medicinal Chemistry, 2018), this text covers IC50 for 2 molecules.

Bounds are passed on as bounds.

Assay [1] can be described thus: AlphaScreen biotin-His6 counterscreen. The following applies: AlphaScreen interference counterscreen with biotin-His6; unit inferred; DNC = data did not converge to binding model; NM = not measurable within the solubility range. For orientation: Alpha assays give light when donor and acceptor beads are brought close together.
The target of assay [2] is T1, KDM5A_c1 (M1-L801) (Homo sapiens, UniProt P29375).
T1 construct: made in house
T1 sequence (P29375 1-801): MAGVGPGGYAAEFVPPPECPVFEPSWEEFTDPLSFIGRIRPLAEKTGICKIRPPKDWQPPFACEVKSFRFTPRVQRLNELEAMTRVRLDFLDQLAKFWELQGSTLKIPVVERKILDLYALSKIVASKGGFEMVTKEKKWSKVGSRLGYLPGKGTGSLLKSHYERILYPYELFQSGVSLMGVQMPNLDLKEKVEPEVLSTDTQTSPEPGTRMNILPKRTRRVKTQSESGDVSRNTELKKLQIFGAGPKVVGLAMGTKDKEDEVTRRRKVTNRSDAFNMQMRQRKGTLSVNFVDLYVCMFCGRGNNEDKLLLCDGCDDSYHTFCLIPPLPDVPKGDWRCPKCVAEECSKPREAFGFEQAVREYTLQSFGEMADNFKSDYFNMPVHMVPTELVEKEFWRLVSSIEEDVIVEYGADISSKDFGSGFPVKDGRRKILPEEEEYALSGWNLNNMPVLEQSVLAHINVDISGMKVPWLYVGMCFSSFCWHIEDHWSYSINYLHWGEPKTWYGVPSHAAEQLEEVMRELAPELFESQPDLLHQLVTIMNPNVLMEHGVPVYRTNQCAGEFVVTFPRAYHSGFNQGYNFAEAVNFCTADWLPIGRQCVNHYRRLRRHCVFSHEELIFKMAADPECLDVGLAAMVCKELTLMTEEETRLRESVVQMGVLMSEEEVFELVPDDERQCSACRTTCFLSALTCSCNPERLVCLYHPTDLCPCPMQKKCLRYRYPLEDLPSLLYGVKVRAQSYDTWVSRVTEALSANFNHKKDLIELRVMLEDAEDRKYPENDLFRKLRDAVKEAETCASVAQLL
Put plainly: MALDI-TOF MS H3K4me3 demethylation assay, KDM5A_c1. The following applies: average ± StdDev of n = 2, read-out: IC50, inhibition of H3K4me3 demethylation activity, KDM5A_c1. Format: biochemical. As to the method:
Two catalytically active constructs of KDM5A were employed, KDM5A_c1 (M1-L801) and KDM5A_c2 (ΔARID/PHD1, P13-S744 with L88-G353 (ARID/PHD1) replaced with a GGGG linker) and both KDM5A_c1 and KDM5A_c2 constructs lack the PHD2 and PHD3. […] A MALDI-TOF MS assay was used to measure the activity of H3K4me3 demethylation in the presence of inhibitors (Table 2, Fig. 3C and D).
The KDM5A mixture (5 µL, KDM5A-c1: 1.0 µM or KDM5A-c2: 0.5 µM) was pre-incubated with 100 nL inhibitors (in DMSO) for 10 min. […] The mixture was quenched using formic acid (5 µL, 1 v/v% in MQ) after 4 minutes (KDM5A-c1) or 3 minutes (KDM5A-c2). The stopped reaction (1 µL) was mixed with […] (CHCA) MALDI matrix (saturated solution in TFA (0.1%) in MilliQ water and trifluoroacetic acid (0.1%) acetonitrile (1:1)) at 1:1 ratio (2 µL), air dried and analysed using Bruker microflex MALDI-TOF controlled with FlexControl. The data were further processed using FlexAnalysis and excel.

For assay [3], the target named is T2, KDM7B(PHD) (Homo sapiens, UniProt Q9UPP1).
T2 construct: made in house
T2 sequence (Q9UPP1 41-92 limits assumed): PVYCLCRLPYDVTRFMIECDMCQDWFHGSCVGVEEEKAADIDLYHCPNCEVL
As to the kind of experiment: AlphaScreen displacement of H3K4me3-Bn from His-KDM7B(PHD). It is filed as binding. The following applies: AlphaScreen; 12.5 nM protein and 12.5 nM peptide; n ≥ 3; read-out: IC50 for displacement of H3K4me3-Bn from His-KDM7B(PHD). As to the method: (§1) For peptide displacement assays, 5 µL of the inhibitor dilution series (at a concentration of 4% DMSO in AlphaScreen assay buffer) was pre-incubated with 5 µL of the protein at RT for 15 minutes. Peptide solution (5 µL) was added and incubated for 30 minutes at RT, followed by the addition of 5 µL of a mixture of AlphaScreen Streptavidin donor beads and Nickel Chelate acceptor beads in AlphaScreen assay buffer (20 µg/mL final). The contents were incubated for 60-120 minutes at RT in the dark, followed by measurement of luminescence on a BMG Labtech Pherastar plate reader (Software Ver. 5.30 R3, Firmware Ver. 1.21). The data was plotted in Prism Ver 7.01 (GraphPad Software, Inc.) and fitted to a Log(inhibitor) v/s response – variable slope model in order to obtain IC50 values.

Assay [4] deals with T3, KDM7C(PHD) (Homo sapiens, UniProt O75151).
T3 construct: made in house
T3 sequence (O75151 5-56 limits assumed): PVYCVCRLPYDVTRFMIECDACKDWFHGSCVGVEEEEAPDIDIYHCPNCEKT
Put plainly: AlphaScreen displacement of H3K4me3-Bn from His-KDM7C(PHD). Format: binding. The following applies: AlphaScreen; 25 nM KDM7C(PHD) and 6.25 nM peptide; n ≥ 3; read-out: IC50 for displacement of H3K4me3-Bn from His-KDM7C(PHD). As to the method:
as §1

The target in assay [5] is KDM7A (PHD-JmjC) (Homo sapiens, UniProt Q6ZMT4). Put plainly: AlphaScreen displacement of H3K4me3-Bn from His-KDM7A(PHD-JmjC). It is filed as binding. The following applies: AlphaScreen displacement of H3K4me3-Bn; n = 3; NI = No inhibition seen at 100 μM; read-out: IC50 KDM7A (PHD-JmjC) (Displacement). As to the method: (§2) A dual-domain construct of KDM7A/B(PHD-JmjC), consisting of a JmjC domain in addition to the PHD-finger (Fig. 1B), was used to test for allosteric inhibition through binding at the PHD-finger.
as §1

Assay [6] concerns the target T4, KDM7B (PHD-JmjC) (Homo sapiens, UniProt Q9UPP1).
T4 construct: A dual-domain construct of KDM7A/B(PHD-JmjC), consisting of a JmjC domain in addition to the PHD-finger; His; made in house
As to the kind of experiment: AlphaScreen displacement of H3K4me3-Bn from His-KDM7B(PHD-JmjC). Format: binding. To be noted: AlphaScreen displacement of H3K4me3-Bn; n = 3; NI = No inhibition seen at 100 μM; read-out: IC50 KDM7B (PHD-JmjC) (Displacement). As to the method: as §2, §1

KDM7A (PHD-JmjC), sequence (Q6ZMT4 37-386 limits assumed): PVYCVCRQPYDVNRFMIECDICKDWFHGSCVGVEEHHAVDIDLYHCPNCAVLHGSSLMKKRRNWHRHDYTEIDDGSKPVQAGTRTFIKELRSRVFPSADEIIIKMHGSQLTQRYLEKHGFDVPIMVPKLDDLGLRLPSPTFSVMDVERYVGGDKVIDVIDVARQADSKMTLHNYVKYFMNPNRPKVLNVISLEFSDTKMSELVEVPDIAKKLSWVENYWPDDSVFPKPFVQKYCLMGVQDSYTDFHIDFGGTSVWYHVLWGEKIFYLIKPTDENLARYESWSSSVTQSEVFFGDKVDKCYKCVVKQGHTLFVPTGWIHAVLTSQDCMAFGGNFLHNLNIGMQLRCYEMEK
T4 sequence (Q9UPP1 37-483 limits assumed): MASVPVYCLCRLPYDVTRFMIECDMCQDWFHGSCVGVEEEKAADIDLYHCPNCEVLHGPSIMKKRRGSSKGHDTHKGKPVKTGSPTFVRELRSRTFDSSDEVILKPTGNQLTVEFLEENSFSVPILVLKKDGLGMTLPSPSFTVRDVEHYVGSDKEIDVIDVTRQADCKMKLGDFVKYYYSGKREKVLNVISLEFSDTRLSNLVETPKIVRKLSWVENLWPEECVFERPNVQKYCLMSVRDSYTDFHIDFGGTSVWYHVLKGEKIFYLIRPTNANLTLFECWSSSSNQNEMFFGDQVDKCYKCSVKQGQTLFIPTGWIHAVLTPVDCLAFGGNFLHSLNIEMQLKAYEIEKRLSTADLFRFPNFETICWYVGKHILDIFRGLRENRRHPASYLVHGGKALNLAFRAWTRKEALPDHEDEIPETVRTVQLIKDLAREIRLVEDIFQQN

The term IC50 denotes the midpoint of a concentration-inhibition curve. For the molecule `CCCCc1oc2ccccc2c1C(=O)c1ccc(OCCCN(C)C)cc1` [Compound 1a, (2-Butylbenzofuran-3-yl)(4-(3-(dimethylamino)propoxy)phenyl)methanone], the 50% inhibitory concentration (IC50) was 484 ± 82 µM in assay [1]; more than 1000 µM in assay [2]; 397 ± 77 µM in assay [3]; 158 ± 30 µM in assay [4]; 295 ± 48 µM in assay [5]; more than 100 µM in assay [6].

Regarding `CCCCc1oc2ccccc2c1C(=O)c1ccc(OCCC[N+](C)(C)C)cc1.[I-]` [Compound 2a, 3-(4-(2-Butylbenzofuran-3-carbonyl)phenoxy)-N,N,N-trimethylpropan-1-aminium iodide], the IC50 in assay [1] stood at 4300 ± 163 µM; in assay [2], 80 ± 29 µM; in assay [3], 355 ± 39 µM; in assay [4], 579 ± 87 µM; in assay [5], 149 ± 32 µM; in assay [6] it was 120 ± 32 µM.
